Test results: patent US7211562B2, “Methods for enhancing the efficacy of cytotoxic agents through the use of HSP90 inhibitors” (Sloan-Kettering Institute for Cancer Research, priority 2000, dated 2007)

How the values were obtained:
SKBR-3 cells [1] = assay: Confocal microscopy of spindle formation and nuclear fragmentation (Hoechst / anti-tubulin dual stain); type: cell-based, human; details: 12 h; for apoptosis / nuclear fragmentation / mitotic spindle formation / mitotic index: SKBr-3, 10 nM Taxol 4 h followed by 50 nM CNF-101 or vehicle
Experimental: Each experiment was repeated in triplicate.
The effects of Taxol®, CNF-101 and a combination of the two agents on nuclear fragmentation (a marker of apoptosis) and mitotic spindle formation in SKBR-3 cells were assessed.
In these sections, 4% of cells were undergoing mitosis and the mitotic cells appeared normal.

SKBR-3 cells [2] = assay: Cell cycle distribution by DNA content (FACS); type: cell-based, human; details: SKBR-3, 10 nM Taxol 4 h, 50 nM CNF-101 12–24 h, or reversed order
Experimental: Cells were trypsinized and analyzed by DNA content (an indication of cell cycle status) by fluorescent staining and FACS analysis. Cell cycle distribution was assayed according to Nusse et al., 1990, Cytometry, 11: 813, with a Becton Dickinson fluorescence-activated cell sorter and analyzed by Cell Cycle Multi-cycle system (Phoenix Flow System, San Diego, Calif.).

| Compound | apoptosis / nuclear fragmentation (SKBR-3 cells [1]) | mitotic spindle formation / mitotic index (SKBR-3 cells [1]) | cells undergoing mitosis (SKBR-3 cells [1]; SKBr-3, 50 nM CNF-101 alone (or neither drug)) [%] | cell cycle distribution (SKBR-3 cells [2]) |
| --- | --- | --- | --- | --- |
| C=CCNC1=C2C[C@@H](C)C[C@H](OC)[C@H](O)[C@@H](C)/C=C(\C)[C@H](OC(N)=O)[C@@H](OC)/C=C\C=C(/C)C(=O)NC(=CC1=O)C2=O [CNF-101, 17-allylamino 17-demethoxygeldanamycin] | no significant apoptosis | no effect on the spindle | 4 | slightly enhanced the G1 fraction |
| CC(=O)O[C@H]1C(=O)[C@@]2(C)[C@H]([C@H](OC(=O)c3ccccc3)[C@]3(O)C[C@H](OC(=O)[C@H](O)[C@@H](NC(=O)c4ccccc4)c4ccccc4)C(C)=C1C3(C)C)[C@]1(OC(C)=O)CO[C@@H]1C[C@@H]2O [Taxol®, paclitaxel] | little evidence of apoptotic nuclear fragmentation | increase in the mitotic index with all the mitotic cells appearing to have damaged spindles | – | massive G2-M arrest |
